Test results reported in patent US5814627A, “3, 5-disubstituted and 3, 4, 5-trisubstituted 2-isoxazolines and isoxazoles, process for their preparation and their use as pharmaceuticals” (Hoechst Aktienegesellschaft, priority 1994, dated 1998).
Like-named read-outs stand apart in the source and are kept apart here.

Columns and labels:
[1] = test system: TNFα release from mononuclear cells; test: Test 4: cytokine release from LPS-stimulated mononuclear cells, TNFα; assay type: cell-based; conditions: Homo sapiens, read-out: Test 4 residual activity (TNFα release), percent of control
Protocol: (§1) Test 4. Stimulation of the cytokine release
(§2) Isolation of mononuclear cells from human blood
(§3) 10 ml of human blood, stabilized with 1 ml of 3.8% sodium citrate solution, were diluted with 10 ml of PM16 (Serva, Heidelberg) and underlaid with 15 ml of Lymphoprep (Dr. Molter GmbH, Heidelberg). The samples were centrifuged, at room temperature for 40 minutes, at 400×g (1600 rpm, Minifuge 2, Heraeus, Osterode). The mononuclear cells are visible as a white ring at the Lymphoprep/plasma interface. This ring was carefully removed with a syringe, diluted with an equal volume of PM16, and centrifuged for 10 minutes at 400×g. The sediment was washed with approximately 10 ml of RPMI1640 (+300 mg/l L-glutamine, Gibco, Eggenstein) (Wallis, 1986). After the cells had been resuspended in approximately 1 ml of RPMI1640 (+300 mg/l L-glutamine+25 mM HEPES+100 μg/ml streptomycin+100 μg/ml penicillin), the cell density was determined using a Coulter Counter JT (Coulter Diagnostics) and adjusted to 5*10^6 /ml. Typically, the cells are composed of 90% lymphocytes and 10% monocytes.
(§4) 230 μl of mononuclear cells were incubated, at 37° C.; 5% CO2 for 20-22 hours (5 hours in the case of IL-6), with 10 μl of test substance (10 μM in DMSO/water, 1/10) and 10 μl of lipopolysaccharide (LPS; 500 μg dissolved in 1 ml of DMSO and diluted 1/10 with water prior to beginning the test; from Salmonella abortus equi, Sigma, Deisenhofen). The samples were cooled down to 0° C. in an ice bath and centrifuged in a Sigma centrifuge (2 minutes; 2000 rpm). Aliquots of the supernatant are measured with an ELISA (Biermann, Bad Nauheim). The abbreviation IL stands for interleukin and TNF for tumor necrosis factor alpha.
(§5) The values in the table show the concentration of the test substance which was employed in μM and, besides this, the residual activity measured in percent based on the control, which was set to be 100%. The interleukin is additionally indicated in test 4.

[2] = test system: cyclooxygenase-dependent thrombocyte aggregation; test: Test 5: Cyclooxygenase-dependent thrombocyte aggregation; assay type: cell-based, human; conditions: Homo sapiens, arachidonic acid as inducer, read-out: Test 5 residual activity (cyclooxygenase-dependent thrombocyte aggregation), percent of control
Summary of the method: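 Citrated human platelet-rich plasma was preincubated 10 min at 37 °C with test substance diluted 1:30 in 50 mM Tris-HCl pH 8.0, 90 mM NaCl. Aggregation was triggered with arachidonic acid (5 mg/ml, 20 μl) under 800 rpm stirring in an aggregometer. Values are tested concentration (μM) and residual activity as % of control.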

[3] = test system: leukotriene B4 synthesis in white blood cells; test: Test 3: LTB4 formation by white blood cells; assay type: cell-based; conditions: Homo sapiens, read-out: Test 3 residual activity (LTB4 formation), percent of control
Protocol: TEST 3. LTB4 formation by white blood cells
Isolation of white blood cells:
40 ml of human blood were mixed with 8 ml of 6% dextran solution (dextran, mw: 480,000 in PM16). After one hour at room temperature, the supernatant,which was composed of white blood cells, was removed, diluted with an equal volume of PM16, and centrifuged for 15 minutes at 300×g (1600 rpm). The sediment was next resuspended in approximately 5-6 ml of PM16 and, once the cell count had been determined in a Coulter Counter, adjusted to 10^7 cells/ml.
The test mixture comprised 0.24 ml of cell suspension, 0.03 ml of 20 mM CaCl2 /5 mM MgCl2 and 5 μl of test substance. Following 15 minutes of preincubation at 37° C., the reaction was started with 0.03 ml of A23187/glutathione (100 μg of A23187/ml; 15.4 μg of glutathione/ml). The incubation was terminated after 5 minutes at 37° C. by immediate cooling of the samples down to 0° C. After centrifuging for 2 minutes in an Eppendorff Centrifuge (0° C.), the supernatant was removed and examined chromatographically.
High pressure liquid chromatography (HPLC): the HPLC equipment comprises a Kratos pump (Spectro-flow 400), a cooled automatic BT 7041 sample injector (Biotronik) having a 75 μl sample loop, a Nucleosil C18 column (100*3 mm, 5 μm particles of Chrompack), a UV detector (Kratos) Spectroflow 757 (wavelength: 280 nm, measurement range: 0.1 AUFS, time constant: 0.5 s) and a Spectra Physics integrator (SP 4270). The eluent (725 ml of methanol, 275 ml of water and 0.1 ml of acetic acid) was supplied at a flow rate of 0.7 ml/minute and at a pressure of about 100 bar.
When doing this, the measurement range which has been set can be examined and altered if necessary. It is also vital to measure the test substances at the particular test concentration (e.g.: 10^-5 M) in PM16 before the cell incubation, since the test substances might conceal the LTB4 peak. If this is the case, a lower concentration must be selected.
as §5

[4] = test system: adjuvant/arthritis model; test: Test 6: antiarthritic effect in the adjuvant/arthritis model; assay type: in vivo, rat (Wistar-Lewis); conditions: Rattus norvegicus, po, 408 h, 50 mg/kg orally, daily for 17 days; rat; read-out: Test 6 Paw volume (% inhibition)
Protocol: Male rats of a Wistar-Lewis strain (Mollegaard/Denmark) were used as experimental animals. The body weight is between 160 and 200 g. Subplantar injection of 0.1 ml of Freund's adjuvant (=6 mg of Mycobacterium butyricum suspension, Difco Lab./Detroit, Mich. USA, per ml of heavy white paraffin oil, Merck, Darmstadt) into the root of the tail resulted, on the 10th to 14th day of the experiment, in immunopathological processes and chronic inflammations, particularly in the form of arthritic and periarthritic symptoms, at other sites in the body (secondary lesions). The animals were fed ad libitum with the standard feed Altromin-R, from Altrogge, Lage, and provided with tap water. The animals were given 60 mg of codein per kg as an analgesic from the 14th day to the end of the experiment. The test substances were administered orally as a CMC suspension, in an injection volume of 1 ml/100 g of body weight, on each day (in all for 17 days), beginning on the day of the adjuvant administration. The volumes of each of the hind paws, and the body weight, were measured on the first and on the 18th day of the experiment. Diminution in the increase of paw volume, as compared with the untreated control group, served as the criterion of activity, with the two hind paws being averaged.

[5] = test system: IL-1 release from mononuclear cells; test: Test 4: cytokine release from LPS-stimulated mononuclear cells, IL-1; assay type: cell-based; conditions: Homo sapiens
Protocol: as §1, §2, §3, §4, §5

[6] = test system: tumor cell line 20-10-5S (hybridoma cell line); test: Test 8: Inhibition of tumor cell proliferation; assay type: cell-based; conditions: 48 h + 16 h tritiated thymidine incorporation; 20-10-5S cells
Protocol: The tumor cell line 20-10-5S (hybridoma cell line, supplied by ATCC (American Type Culture Collection)), which produces an antibody against mouse T cells) was used for determining the antiproliferative property of test substances. The cells were cultured, at 37° C. and 5% C2, under serum-free conditions in CG medium (cell-growth medium=Iscove-ATL (+albumin+transferrin+lipids); from Vitromex, Vilshofen). Only cells which were in the logarithmic phase of growth were used for the test mixture. The test substances were pipetted in various concentrations (from 1 to 50 μM), together with 4×10^3 20-10-5S cells, into round-bottomedmicrotiter plates (total volume with medium, 200 μl). After an incubation time of 48 h (37° C. and 5% CO2), 25 μl of tritiated thymidine (=0.25 μCi/test mixture, specific activity, 23 Ci/mM) were added to the plates. During the subsequent 16 h, the radioactively labeled thymidine was incorporated into the DNA of the growing cells. The samples were filtered off with suction on glass fiber filters and the incorporated radioactivity was measured using a β counter (Beta Plate System 1205 from Wallac).

[7] = test system: PAF-induced asthma attack; test: Test 7: antiasthmatic effect, PAF-induced asthma attack; assay type: in vivo; conditions: Cavia porcellus; i.d., 15 minutes before PAF; guinea pig
Protocol: Test 7: Testing for antiasthmatic effect
Anesthetized guinea pigs, which were cannulated in the jugular vein to allow injection of the PAF, were used for testing for antiasthmatic effect. The test preparations were also administered intravenously (i.v.), 5 min before PAF administration, into the blood stream through the same venous cannula, or else administered intraduodenally (i.d.), 15 minutes before the PAF, through an opening in the duodenum which had been installed and cannulated surgically. The bronchial width was recorded in an overflow pneumonogram before and after administering the preparation. Evaluation: ED50 in mg/kg i.d. as compared with the PAF-induced asthma attack.

[8] = test system: IL-1α release from mononuclear cells; test: Test 4: cytokine release from LPS-stimulated mononuclear cells, IL-1α; assay type: cell-based; conditions: Homo sapiens, read-out: Test 4 residual activity (IL-1α release), percent of control
Protocol: as §1, §2, §3
as §4, with “([…])” for “(10 μM in DMSO/water, 1/10)”
as §5

[9] = test system: IL-1β release from mononuclear cells; test: Test 4: cytokine release from LPS-stimulated mononuclear cells, IL-1β; assay type: cell-based; conditions: Homo sapiens, read-out: Test 4 residual activity (IL-1β release), percent of control
Protocol: as §1, §2, §3, §4, §5

[10] = test system: polymorphonuclear leucocytes (PMNL); test: Test 1: Release of proteolytic activity from human PMNL; assay type: cell-based; conditions: Homo sapiens, PMNL, read-out: Test 1 residual activity (release of proteolytic activity), percent of control
Summary of the method: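 Human peripheral-blood PMNL (5·10^6 cells/ml in PBS with 7.5 mM glucose) preincubated 20 min at 37° C. with compound, then primed with cytochalasin B (5 μg/ml) and TNF (30 ng/ml), and stimulated with fMLP (10 nmol/l) for 60 min. Released protease in supernatant read with methoxysuccinyl-nitroanilide substrate at 405 nm over 0-60 min, pH 7.5.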

[11] = IL-1, read-out: Test 4 residual activity (IL-1 release), percent of control

IC50 [6] | Structure (SMILES) | activity at 10 µM [1] | activity at 100 µM [2] | activity at 10 µM [3] | activity at 1 µM [8] | activity at 100 µM [10] | other results
– | CC(C)(C)c1cc(C2=NOC(c3ccncc3)C2)cc(C(C)(C)C)c1O (stereo not shown) [Example 10] | 78% | 98% | 20% | – | – | activity at 1 µM [3]: 89%
< 5 µM | CC(C)(C)c1cc(-c2cc(CO)on2)cc(C(C)(C)C)c1O [Example 24] | – | – | – | – | – | inhibition in vivo at 50 mg/kg [4]: 43%; activity at 10 µM [5, 11]: 86%; activity at 10 µM [2]: 94%
< 5 µM | CC(C)(C)c1cc(-c2cc(CCO)on2)cc(C(C)(C)C)c1O [Example 25] | 82% | – | 29% | – | – | ED50 [7]: 3 to 10 mg/kg; inhibition in vivo at 50 mg/kg [4]: 44%; activity at 10 µM [8]: 62%; activity at 10 µM ([9]; 10 μM): 93%; activity at 10 µM [2]: 86%; activity at 1 µM [3]: 85%
– | CC(C)(OCc1cc(-c2cc(C(C)(C)C)c(O)c(C(C)(C)C)c2)no1)C(=O)Nc1nnn[nH]1 [Example 38, 2-(3-(4-Hydroxy-3,5-di-tert-butylphenyl)isoxazol-5-ylmethoxy)-N-(1H-tetrazol-5-yl)isobutyramide] | – | 90% | – | 89% | – | activity at 1 µM [9]: 85%
– | CC(C)(C)c1cc(-c2cc(CCC(=O)Nc3nnn[nH]3)on2)cc(C(C)(C)C)c1O [Example 46, 3-(3-(4-Hydroxy-3,5-di-tert-butylphenyl)isoxazol-5-yl)-N-(1H-tetrazol-5-yl)propionamide] | 79% | 90% | – | 77% | – | activity at 1 µM [9]: 85%
5 to 10 µM | CC(C)(C)c1cc(-c2cc(/C=C/C(=O)O)on2)cc(C(C)(C)C)c1O [Example 47, 3-(4-Hydroxy-3,5-di-tert-butylphenyl)isoxazol-5-ylacrylic acid] | 64% | – | – | 89% | 17% | activity at 1 µM ([10]; 1 μM): 85%; activity at 10 µM [10]: 38%; ED50 [7]: 10 to 50 mg/kg; activity at 10 µM [8]: 72%
– | CC(C)(C)c1cc(C2CC(c3nccs3)=NO2)cc(C(C)(C)C)c1O (stereo not shown) [Example 61, 3-(2-Thiazolyl)-5-(4-hydroxy-3,5-di-tert-butylphenyl)-2-isoxazoline] | 68% | 94% | 3% | 94% | 80% | –
– | CC(C)(C)c1cc(C2CC(CCC(=O)Nc3nnn[nH]3)=NO2)cc(C(C)(C)C)c1O (stereo not shown) [Example 64, 5-(4-Hydroxy-3,5-di-tert-butyl)phenyl-2-isoxazoline-3-propionic acid-N-(1H-tetrazol-5-yl)amide] | – | 97% | – | – | 72% | activity at 10 µM [10]: 96%; activity at 10 µM ([5]; IL-1 (second entry), read-out: Test 4 residual activity (IL-1 release, second IL-1 entry of Ex. 64), percent of control): 82%; activity at 1 µM ([5]; IL-1, 1 μM, read-out: Test 4 residual activity (IL-1 release), percent of control): 85%; activity at 10 µM [5, 11]: 68%
